Patent US10874636B2, “Application of substituted cinnamamide derivatives in preparation of anti-anxiety medication” (TASLY PHARMACEUTICAL GROUP CO., LTD., priority 2016, dated 2020)

Tests used:
mice = test: Elevated plus-maze test for mice; format: in vivo, ICR male mice; details: 10 mg/kg intragastric for 1 week; in words
Procedure: 247 ICR male mice aged 6-8 weeks with the weight of 18-22 g were taken and fed adaptively for 1 week. Then, these mice were evenly divided, at random, into 19 groups based on their weights. Intragastric administration was conducted once a day according to the drugs and dosages listed in Table 1, which lasted for 7 consecutive days. 20 minutes after administration on the 7th day, the elevated plus-maze test was conducted.
The elevated plus-maze (EPM) for mice were composed of two opposite open arms (50 cm×10 cm) and two opposite enclosed arms (50 cm×10 cm×40 cm), wherein upper portions of the enclosed arms were not capped, an open portion of 10 cm×10 cm was located in the middle of the maze, and the maze was 50 cm away from the ground. The test was conducted in a quite environment at a time period ranging from 13:00 to 18:00.
The open-arms entries (OE) and enclosed-arms entries, as well as the residence time in two arms, of the mice, within 5 minutes, were recorded respectively, and the percentage of the open-arms entries (OE %) and that of the open-arms time (OT %) for each group of mice with respect to the total entries into the two arms and the total residence time in the two arms therein were calculated respectively.
Analysis was conducted using SPSS 11.5 software, and data were represented by x±S, the significance of differences between groups was compared using the analysis of variance, differences were significant while P was less than 0.05.

rats = test: Drinking conflict experiment for rats (Vogel test); format: in vivo, SD male rats; details: for Effect on water licks of the rats during the punished session compared with the solvent control groups: 5 mg/kg intragastric for 10 days, in words; for Water licks of rats during punished session: 5 mg/kg intragastric once a day for 10 days, test half an hour after final administration, 3 minutes, 0.3 mA, x±S
Procedure: 230 SD male rats with the weight of 180-220 g were taken and fed adaptively for 1 week. Then, these rats were divided, at random, into 19 groups based on their weights, 12-13 rats in each group. Intragastric administration was conducted one a day according to the drugs and dosages listed in Table 2, which lasted for 10 consecutive days. Water deprivation 48 hours before the final administration, and non-punitive drinking training was conducted on the 9th day; on the 10th day, half an hour after the final intragastric administration of all the groups, the punitive experimental test was conducted.
On the first stage (non-punitive drinking training): after water deprivation for 24 hours, the rats were placed in operation boxes individually to explore thoroughly, until they found bottle mouths and began to lick water, water licks of the rats within 3 minutes under the conditions of no electric shock (the condition was set as follows: the strength of electric shock was 0 mA) were automatically recorded by counters, and rats whose water licks were less than 300 were eliminated. On the second stage (punitive experiment): the above rats which were not eliminated were placed in the operation boxes after continuing the water deprivation for 24 hours (48 hours in total). The rats could find the bottle mouths rapidly and begin to lick water, the instruments began to time automatically and imparted one electric shock (the ratio of licks to the number of electric shocks was 20:1) while the water licks reached to 20, wherein the strength of electric shocks was 0.3 mA, lasting for 2 seconds, but these rats may control the length of the time for which they were electrically shocked by keeping away from the bottle mouths. Water licks of the rats during the punished session (3 minutes) were recorded.
Observational indexes of the Vogel drinking conflict model: water licks of the rats during the punished session.

N-methyl-(5′-trifluoromethyl-3′,4′-methylenedioxy)-amphetamine hydrochloride [II-16]
Effect on open-arms entries of the mice compared with the solvent control groups (mice): increase the open-arms entries of the mice | Effect on open-arms time of the mice compared with the solvent control groups (mice): prolong their open-arms time | Effect on water licks of the rats during the punished session compared with the solvent control groups (rats): increase water licks of the rats during the punished session | Water licks of rats during punished session (rats): 406.56 ± 65.38

CC(C)CNC(=O)/C=C/c1cc2c(c(C(F)(F)F)c1)OCO2 [II-5, 5′-trifluoromethyl-3′,4′-methylenedioxy cinnamic acid isobutylamide]
Effect on open-arms entries of the mice compared with the solvent control groups (mice): increase the open-arms entries of the mice | Effect on open-arms time of the mice compared with the solvent control groups (mice): prolong their open-arms time | Effect on water licks of the rats during the punished session compared with the solvent control groups (rats): increase water licks of the rats during the punished session | Water licks of rats during punished session (rats): 469.11 ± 50.51

CC(C)CNC(=O)CCc1cc(O)c(O)c(C(F)(F)F)c1 [III-10, 3-(3′,4′-dihydroxyl-5′-trifluoromethylphenyl)-propionic acid isobutylamide]
Effect on open-arms entries of the mice compared with the solvent control groups (mice): increase the open-arms entries of the mice | Effect on open-arms time of the mice compared with the solvent control groups (mice): prolong their open-arms time | Effect on water licks of the rats during the punished session compared with the solvent control groups (rats): increase water licks of the rats during the punished session | Water licks of rats during punished session (rats): 369.00 ± 44.83

COc1cc(/C=C/C=C/C(=O)NCC(C)C)cc(C(F)(F)F)c1OC [III-13, 5-(5′-trifluoromethyl-3′,4′-dimethoxyphenyl) pentadienoic acid isobutylamide]
Effect on open-arms entries of the mice compared with the solvent control groups (mice): increase the open-arms entries of the mice | Effect on open-arms time of the mice compared with the solvent control groups (mice): prolong their open-arms time | Effect on water licks of the rats during the punished session compared with the solvent control groups (rats): increase water licks of the rats during the punished session | Water licks of rats during punished session (rats): 375.67 ± 58.13

CC(C)CNC(=O)/C=C/c1cc(O)c(O)c(C(F)(F)F)c1 [III-7, 3′,4′-dihydroxyl-5′-trifluoromethyl-cinnamic acid isobutylamide]
Effect on open-arms entries of the mice compared with the solvent control groups (mice): increase the open-arms entries of the mice | Effect on open-arms time of the mice compared with the solvent control groups (mice): prolong their open-arms time | Effect on water licks of the rats during the punished session compared with the solvent control groups (rats): increase water licks of the rats during the punished session | Water licks of rats during punished session (rats): 378.33 ± 54.97

COc1cc(/C=C/C(=O)NCC(C)C)cc(C(F)(F)F)c1OC [III-2, 3′,4′-dimethoxy-5′-trifluoromethyl-cinnamic acid isobutylamide]
Effect on open-arms entries of the mice compared with the solvent control groups (mice): increase the open-arms entries of the mice | Effect on open-arms time of the mice compared with the solvent control groups (mice): prolong their open-arms time | Effect on water licks of the rats during the punished session compared with the solvent control groups (rats): increase water licks of the rats during the punished session | Water licks of rats during punished session (rats): 368.00 ± 39.59

CN1CCN(C(=O)/C=C/C=C/CCc2cc3c(c(C(F)(F)F)c2)OCO3)CC1.Cl [II-15, (2E,4E)-N-(4-methylpiperazinyl)-7-(5′-trifluoromethyl-3′,4′-methylenedioxyphenyl)-2,4-heptadiene amide hydrochloride]
Effect on open-arms entries of the mice compared with the solvent control groups (mice): increase the open-arms entries of the mice | Effect on open-arms time of the mice compared with the solvent control groups (mice): prolong their open-arms time | Effect on water licks of the rats during the punished session compared with the solvent control groups (rats): increase water licks of the rats during the punished session | Water licks of rats during punished session (rats): 412.25 ± 42.90

CC(C)CNC(=O)/C=C/c1cc(Cl)c2c(c1)OCO2 [II-4, 5′-chlorine-3′,4′-methylenedioxy cinnamic acid isobutylamide]
Effect on open-arms entries of the mice compared with the solvent control groups (mice): increase the open-arms entries of the mice | Effect on open-arms time of the mice compared with the solvent control groups (mice): prolong their open-arms time | Effect on water licks of the rats during the punished session compared with the solvent control groups (rats): increase water licks of the rats during the punished session | Water licks of rats during punished session (rats): 477.22 ± 66.66

COc1c(O)cc(/C=C/C(=O)NCC(C)C)cc1C(F)(F)F [III-4, 3′-hydroxyl-4′-methoxy-5′-trifluoromethyl-cinnamic acid isobutylamide]
Effect on open-arms entries of the mice compared with the solvent control groups (mice): increase the open-arms entries of the mice | Effect on open-arms time of the mice compared with the solvent control groups (mice): prolong their open-arms time | Effect on water licks of the rats during the punished session compared with the solvent control groups (rats): increase water licks of the rats during the punished session | Water licks of rats during punished session (rats): 394.22 ± 50.29

CC(C)CNC(=O)c1cc(O)c(O)c(C(F)(F)F)c1 [III-11, 3,4-dihydroxyl-5-trifluoromethyl-benzoic acid isobutylamide]
Effect on open-arms entries of the mice compared with the solvent control groups (mice): increase the open-arms entries of the mice | Effect on open-arms time of the mice compared with the solvent control groups (mice): prolong their open-arms time | Effect on water licks of the rats during the punished session compared with the solvent control groups (rats): increase water licks of the rats during the punished session | Water licks of rats during punished session (rats): 361.13 ± 38.38

CN1CCN(C(=O)/C=C/CCc2cc3c(c(C(F)(F)F)c2)OCO3)CC1.Cl [II-13, (E)-N-(4-methylpiperazinyl)-5-(5′-trifluoromethyl-3′,4′-methylenedioxyphenyl)-1-pentene amide hydrochloride]
Effect on open-arms entries of the mice compared with the solvent control groups (mice): increase the open-arms entries of the mice | Effect on open-arms time of the mice compared with the solvent control groups (mice): prolong their open-arms time | Effect on water licks of the rats during the punished session compared with the solvent control groups (rats): increase water licks of the rats during the punished session | Water licks of rats during punished session (rats): 393.44 ± 48.99

CC(C)CNC(=O)c1cc2c(c(C(F)(F)F)c1)OCO2 [II-12, 5-trifluoromethyl-3′,4′-methylenedioxy benzoic acid isobutylamide]
Effect on open-arms entries of the mice compared with the solvent control groups (mice): increase the open-arms entries of the mice | Effect on open-arms time of the mice compared with the solvent control groups (mice): prolong their open-arms time | Effect on water licks of the rats during the punished session compared with the solvent control groups (rats): increase water licks of the rats during the punished session | Water licks of rats during punished session (rats): 402.67 ± 50.35

CC(C)CNC(=O)/C=C/c1cc(I)c2c(c1)OCO2 [II-3, 5′-iodine-3′,4′-methylenedioxy cinnamic acid isobutylamide]
Effect on open-arms entries of the mice compared with the solvent control groups (mice): increase the open-arms entries of the mice | Effect on open-arms time of the mice compared with the solvent control groups (mice): prolong their open-arms time | Effect on water licks of the rats during the punished session compared with the solvent control groups (rats): increase water licks of the rats during the punished session | Water licks of rats during punished session (rats): 483.75 ± 59.05
